Assays:
[1] = tested on: primary cultured cells of mouse fetus-derived dorsal root ganglia (DRGs); experiment: Suppression of axonal degeneration after axotomy in DRG explant culture; type: cell-based; conditions: minimum concentration at which axonal degeneration was suppressed (DI 0.3 or less), 24 hours after axotomy; for minimal effective concentration: Mus musculus, read-out: Evaluation on protection against degeneration
Experimental: The compound of the present invention was studied for its protective effect against axonal injury using primary cultured cells of mouse fetus-derived dorsal root ganglia (DRGs).
DRGs were collected from a fetus derived from an ICR mouse (13.5 days of pregnancy). DRGs were cultured using a plate coated by incubation with 0.1 mg/mL poly-L-lysine at 4°C for 24 hours or longer, washing with PBS, and then incubation with 2.5 µg/mL Cultrex Mouse Laminin I at 37°C for 4 to 6 hours.
One of DRGs collected was plated to each well of the coated 24-well plate. The DRG was cultured in a nicotinamide-free medium for neuron (supplemented with 10% FBS, 1 mM glutamine, 50 ng/mL NGF2.5S, and penicillin-streptomycin) for 24 hours at maximum from the start of culture and then cultured in a nicotinamide-free medium for neuron (supplemented with 2% MACS NeuroBrew-21, 50 ng/mL NGF2.5S, 1% Glutamax, 20 µM uridine, 20 µM 5-fluoro-2'-deoxyuridine, and penicillin-streptomycin) for 7 to 8 days.
The nicotinamide-free medium for neuron was prepared so as to have the same constituents as those of the composition published in a previously reported paper (Brewer et al., J. Neuroscience Research 35: 567-576) except for nicotinamide with reference to this composition.
The test compound is dissolved in DMSO and added to cells such that the final concentration of DMSO is 0.1% (1000-fold dilution). 10 mM, 1 mM, 100 µM, 10 µM, 1 µM, and 100 nM samples of the test compound are prepared and added at a 1000-fold dilution to cells.
Axotomy was carried out by scooping out a cell body portion of the cultured DRG with a chip for a micropipette. The test compound was added at the following concentrations (final concentration: 10 µM, 1 µM, 100 nM, 10 nM, 1 nM, and 100 pM) within 30 minutes after axotomy. The compound was evaluated for its protective effect against axonal degeneration by imaging (Leica DMIL microscope, 20× objective lens) the state of neurites 24 hours after axotomy and evaluating the degree of degeneration. The degree of degeneration was quantified using a program uniquely developed using the R language. A degeneration index (DI) was used as an indicator for the degree of degeneration, and the ratio of the area of a fragmented axon to the total area of axons was calculated as defined in the equation of Expression 2. Suppressed axonal degeneration was evaluated when the value of DI was 0.3 or less. The minimum concentration at which axonal degeneration was suppressed was determined for each compound. Degeneratioin index (DI) = (Degenerated axons)/(All axons) [formula]
The axonal protective activity was evaluated as A ≤ 0.01 µM, 0.01 µM < B ≤ 0.1 µM, and 0.1 µM < C ≤ 1 µM depending on the minimum concentration at which axonal degeneration was suppressed.

hSARM1 = biological target: T1, hSARM1 (Homo sapiens, UniProt Q6SZW1); experiment: Human SARM1 activity measurement in HEK293 cells transiently transfected with ΔN-hSARM1 (PC6 fluorescent probe); type: cell-based; set-up: expressed in transfected cells; host or cells: HEK293, pcDNA3 expression vector; conditions: inhibition rate; compound 30 µM; PC6 50 µM; HEK293 cells expressing ΔN-hSARM1; approximately 48 hours from transfection; read-out: Evaluation on hSARM1 inhibitory
T1 sequence (Q6SZW1 28-724): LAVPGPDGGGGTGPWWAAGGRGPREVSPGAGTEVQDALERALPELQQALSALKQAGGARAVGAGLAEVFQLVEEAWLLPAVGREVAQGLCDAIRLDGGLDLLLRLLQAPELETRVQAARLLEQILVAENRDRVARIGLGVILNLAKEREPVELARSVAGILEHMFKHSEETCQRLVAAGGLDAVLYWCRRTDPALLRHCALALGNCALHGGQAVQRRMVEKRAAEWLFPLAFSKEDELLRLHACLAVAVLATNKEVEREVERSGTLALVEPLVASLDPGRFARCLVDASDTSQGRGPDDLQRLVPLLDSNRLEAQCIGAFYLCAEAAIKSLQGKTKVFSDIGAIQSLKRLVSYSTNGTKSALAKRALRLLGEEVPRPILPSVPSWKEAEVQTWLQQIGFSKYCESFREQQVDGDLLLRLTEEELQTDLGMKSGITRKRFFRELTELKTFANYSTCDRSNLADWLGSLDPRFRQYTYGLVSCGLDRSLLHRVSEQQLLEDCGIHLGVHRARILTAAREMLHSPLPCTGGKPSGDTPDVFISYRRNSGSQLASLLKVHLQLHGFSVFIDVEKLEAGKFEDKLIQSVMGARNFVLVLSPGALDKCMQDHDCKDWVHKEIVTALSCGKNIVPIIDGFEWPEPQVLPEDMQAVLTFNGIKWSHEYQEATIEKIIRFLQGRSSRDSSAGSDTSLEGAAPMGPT
Experimental: HEK293 cells cultured in a prepared medium of nicotinamide-free DMEM (Dulbecco's modified Eagle medium) supplemented with 10% FBS (BioSera), a 1% penicillin-streptomycin solution (FUJIFILM Wako Pure Chemical Corp.), 5 μM nicotinamide were inoculated at approximately 50,000 cells/well to a 96-well microplate, and the cells were cultured at 37°C under 5% CO2, transiently transfected on the next day with a pcDNA3 expression vector containing a DNA sequence (SEQ ID NO: 1) deficient in a mitochondrial targeting sequence encoded by an N-terminal 78-base sequence in cDNA encoding human sterile α- and armadillo-motif-containing protein (hSARM1) using PEI MAX(R) reagent (PolySciences Inc.), and forced to express ΔN-hSARM1 (SEQ ID NO: 2). Approximately 8 hours later, PC6, which reacts as a substrate of SARM1-specific base exchange reaction and functions as a fluorescent probe, was added thereto at a final concentration of 50 μM, and intracellular hSARM1 activity was measured (Li et al, eLife 2021 10: e67381). A compound for inhibitory activity evaluation was added at a final concentration of 30 μM at the same time with PC6, while dimethyl sulfoxide (Nacalai Tesque Inc.) was added to samples of a control group at the same time with PC6. The cells were incubated at 37°C under 5% CO2 for approximately 48 hours from transfection, followed by fluorescent signal measurement using SpectraMax M2 (Molecular Devices) (excitation: 405 nm, fluorescence: 525 nm, fluorescence cutoff: 515 nm). Results of this screening are reported as an inhibition rate (%) relative to a negative control defined as follows by using fluorescence intensity measured from a control group without transfection with ΔN-hSARM1 as a background whereas using fluorescence intensity measured from a control group transfected with ΔN-hSARM1 as the negative control. Inhibitory rate (%) = 100-(([…]-Background))/((Signalofthenegativecontrol-Background)) × 100 [formula] The nicotinamide-free medium was prepared so as to have the same composition as that of DMEM having known composition which is generally used in the art except for nicotinamide. […]

| SMILES | inhibition at 30 µM (hSARM1) [%] | minimal effective concentration [1] [µM] | Evaluation on protection against degeneration [1] |
| --- | --- | --- | --- |
| O=C(/C=C/c1cccnc1)Nc1cccc(OC(=O)/C=C/c2cccnc2)c1 [compound 33] | > 75 | 0.01 to 0.1 | – |
| O=C(/C=C/c1cccnc1)Nc1ccc(NC(=O)/C=C/c2cccnc2)cc1 [compound 58] | > 75 | ≤ 0.01 | – |
| O=C(/C=C/c1cccnc1)NCCCCCCNC(=O)/C=C/c1cccnc1 [compound 38] | > 75 | ≤ 0.01 | – |
| O=C(/C=C/c1cccnc1)NCCCCCCN1CCN(CCO)CC1 [compound 3] | > 75 | ≤ 0.01 | – |
| O=C(Cc1cccnc1)NCc1ccc(NC(=O)c2ccccc2)nc1 [Compound 141] | – | – | C (0.1 µM < C ≤ 1 µM) |
| C/C(=C\C(=O)NCCCCCCNC(=O)/C=C(\C)c1cccnc1)c1cccnc1 [compound 42] | > 75 | ≤ 0.01 | – |
| NCc1ccc(C(=O)N2CCC(CCCCNC(=O)/C=C/c3cccnc3)CC2)cc1 [compound 1] | > 75 | – | A (A ≤ 0.01 µM) |
| O=C(/C=C/c1cccnc1)NCCCNC1CCN(C(=O)c2ccccc2)CC1 [compound 12] | > 75 | 0.01 to 0.1 | – |
| NCCOCCOCCOCCCCCCCCNC(=O)c1cccnc1 [compound 9] | > 75 | ≤ 0.01 | – |
| COCOc1cccc(OCCCNC(=O)/C=C/c2cccnc2)c1 [compound 24] | > 75 | ≤ 0.01 | – |
| CC(C)(C)OC(=O)N1CC(C(=O)Nc2ccc(CNC(=O)c3cccnc3)cn2)C1 [compound 94] | > 75 | ≤ 0.01 | – |
| O=C(NCc1ccc(NC(=O)C23CC4CC(CC(C4)C2)C3)nc1)c1cccnc1 [Compound 142] | > 75 | 0.01 to 0.1 | – |
| O=C(/C=C/c1cccnc1)NCCCOCCOCCCNC(=O)/C=C/c1cccnc1 [compound 69] | > 75 | ≤ 0.01 | – |
| O=C(/C=C/c1cccnc1)NCCCOc1cccc(O)c1 [compound 23] | > 75 | ≤ 0.01 | – |
| COCOc1cccc(OCCOCCNC(=O)/C=C/c2cccnc2)c1 [compound 29] | > 75 | ≤ 0.01 | – |

Second part, led by results:

| inhibition at 30 µM (hSARM1) [%] | SMILES | minimal effective concentration [1] [µM] | Evaluation on protection against degeneration [1] |
| --- | --- | --- | --- |
| > 75 | O=C(Cc1cccc(C(F)(F)F)c1)Nc1ccc(CNC(=O)c2cccnc2)cn1 [Compound 156] | ≤ 0.01 | – |
| > 75 | O=C(/C=C/c1cccnc1)NCCOCCOc1ccc(CNC(=O)c2cccnc2)cc1 [compound 55] | ≤ 0.01 | – |
| > 75 | O=C(/C=C/c1cccnc1)NCCCOc1ccc(CNC(=O)c2cccnc2)cc1 [compound 53] | ≤ 0.01 | – |
| > 75 | O=C(Cc1ccc(C(F)(F)F)cc1)Nc1ccc(CNC(=O)c2cccnc2)cn1 [compound 89] | ≤ 0.01 | – |
| > 75 | O=C(Nc1ccc(CCc2ccc(NC(=O)c3cccnc3)cc2)cc1)c1cccnc1 [compound 101] | ≤ 0.01 | – |
| > 50 | C/C(=C\C(=O)NCCOCCOc1ccc(CNC(=O)c2cccnc2)cc1)c1cccnc1 [compound 56] | ≤ 0.01 | – |
| > 75 | O=C(/C=C/c1ccccc1)NCc1ccc(CNC(=O)c2cccnc2)cc1 [compound 66] | ≤ 0.01 | – |
| > 75 | O=C(Cc1ccccc1C(F)(F)F)Nc1ccc(CNC(=O)c2cccnc2)cn1 [Compound 155] | ≤ 0.01 | – |
| > 75 | O=C(Cc1ccc(Cl)cc1)Nc1ccc(CNC(=O)c2cccnc2)cn1 [Compound 145] | ≤ 0.01 | – |
| > 10 | CCC(=O)Nc1ccc(CNC(=O)c2cccnc2)cn1 [Compound 157] | – | A (A ≤ 0.01 µM) |
| > 75 | C#CCCOc1ccc(C(=O)NCCCCCCNC(=O)c2cccnc2)cc1 [compound 68] | ≤ 0.01 | – |
| > 75 | O=C(COc1ccccc1)Nc1ccc(CNC(=O)c2cccnc2)cn1 [Compound 147] | ≤ 0.01 | – |
| > 75 | O=C(/C=C/c1cccnc1)NCc1ccc(NC(=O)/C=C/c2cccnc2)cc1 [compound 62] | ≤ 0.01 | – |
| > 50 | O=C(NCCCOc1ccc(CNC(=O)c2cccnc2)cc1)c1cccnc1 [compound 52] | ≤ 0.01 | – |
| > 50 | O=C(NCc1ccc(NC(=O)C2COC2)cc1)c1cccnc1 [compound 93] | 0.01 to 0.1 | – |
| > 75 | O=C(NCCOCCOc1ccc(CNC(=O)c2cccnc2)cc1)c1cccnc1 [compound 54] | ≤ 0.01 | – |
| > 75 | O=C(/C=C/c1cccnc1)NCCOCCOc1cccc(O)c1 [compound 26] | ≤ 0.01 | – |
| > 75 | O=C(/C=C/c1cccnc1)NCCOCCOc1ccc(CNC(=O)c2ccccc2)cc1 [compound 14] | ≤ 0.01 | – |
| > 75 | O=C(CCc1ccc(OC(F)(F)F)cc1)Nc1ccc(CNC(=O)c2cccnc2)cn1 [Compound 170] | ≤ 0.01 | – |
| > 75 | O=C(/C=C/c1cccnc1)NCc1ccc(NC(=O)c2ccccc2)nc1 [compound 77] | ≤ 0.01 | – |

From patent EP4793271A1, “NEUROPROTECTIVE AGENT” (National Center of Neurology and Psychiatry, priority 2023, dated 2025)
